# Laboratory results taken from patent US20090252673A1, “Methods of Making and Using Rubidium-81-Containing Compositions” (priority 2006, published 2009).
# How the values were obtained:
# [1] = test system: rat heart (myocardium), normal and occlusion/reperfusion; experiment: Imaging of rat hearts using a small animal PET scanner; assay type: in vivo, female Wistar rats
# Description: For the PET measurements, a microPET FOCUS 120 small animal scanner (Siemens Medical Solutions USA, Inc.) was used. Imaging was done on 4 female Wistar rats (200-250 g) (see Tab. 1). […] After 5 min, the occlusion was removed and dynamic PET images of the animals were taken for 4 h and 2 h. Two rats were used as controls without occlusion (rest). The first rat was injected with 20.2 MBq Rb-81 and the second rat with 69.3 MBq Rb-81, in 500 μl isotonic saline. Following injection, dynamic PET images of the animals were taken for 4 h (S1#1 und S1#2) and 2 h (S2#3 and S2#4). The Rb-81 solution was injected intravenously in the lateral tail vein of all animals. For occlusion, a 7-0 polypropylene suture on a small curved needle was passed through the left coronary artery (LCA), and ligated to occlude the LCA. After tracer injection, reperfusion was obtained by cutting the suture. LCA occlusion and reperfusion were confirmed by the color change of myocardial surface. […]
# After PET imaging, all animals were sacrificed by carbon dioxide inhalation and the organs of interest (see above) were dissected, weighed and measured for activity using a well-type g-counter. […] All data are expressed as percent of the injected dose per gram tissue (% ID/g, mean±SD). […]
# [2] = test system: occlusion/reperfusion rat heart model; experiment: Ex vivo dual tracer autoradiography, Tl-201 and Rb-81 redistribution kinetics; assay type: in vivo, rats; settings: for activity in occluded areas, percent of the uptake in normal tissues: 20 μm heart slices, phosphor-imager ROIs
# Description: Three additional rats were simultaneously injected with 20 MBq Rb-81 and 2.7 MBq Tl-201. After the occlusion/injection/reperfusion procedure was completed (see FIG. 8), the animals were sacrificed at 0, 15 and 45 min after initiating the reperfusion.
# After the hearts of the animals were removed and freshly frozen in liquid nitrogen, they were sliced into short axis 20 μm slices. Radioactivity in the tissues sections was determined by using a phosphor-imager. Rb-81 was measured over a period of 3 h directly after preparation of the slices, whereas the Tl-201 activity was determined after the Rb-81 activity was almost completed (Rb-81: t1/2=4.58 h versus a 4 day decay period).
# Quantitative evaluations were carried out by comparison of the detected counts within regions-of-interest in both, normal tissue areas and occluded tissues areas. Comparisons are given in percent of normal heart tissue.
# [3] = Biodistribution of Rb-81 in rats; assay type: in vivo, female Wistar rats; settings: mean±SD, n=3
# Description: 1.85-5.33 MBq (50-144 μCi) Rb-81 in 250 μl isotonic saline was injected into the lateral tail vein of 24 non-fasted female Wistar rats weighing 180-220 g (12 animals at each day).
# All the animals were anesthesized with Isofluran (1.5 vol. % and 2.01/min 02) during the injection of the Rb-81 solution. 5 min, 10 min, 20 min, 30 min, 45 min, 1 h, 2 h and 4 h post injection of the Rb-81 solution, the animals were sacrificed by carbon dioxide inhalation (n=3 animals for all time points).
# The organs of interest (heart, blood, lungs, liver, stomach, spleen, pancreas, small intestine, colon, kidney, adrenal gland, muscle, bone, brain and tail) were dissected, weighed and measured for activity using a well-type g-counter. Tracer accumulation was normalized to the organ weights. All data are expressed as percent of the injected dose per gram tissue (% ID/g, mean±SD).
# [4] = 5 min after application into the tail vein
# [5] = 10 min after application into the tail vein
# [6] = 20 min after application into the tail vein
# [7] = 30 min after application into the tail vein
# [8] = 45 min after application into the tail vein
# [9] = 60 min after application into the tail vein
# [10] = 120 min after application into the tail vein
# [11] = 240 min after application into the tail vein
smiles,measurement,setting,value
"[81Rb] [Rb-81, Rubidium-81]",uptake in the myocardium,"[1]; PET summation images, rat",highest shortly after administration
same,period after re-opening of the occlusion over which filling in of the defect takes place (redistribution),"[1]; PET, rat with temporary coronary artery occlusion",40 to 50 min
same,"activity in occluded areas, percent of the uptake in normal tissues",[2]; 0 min p.i.,7%
same,"activity in occluded areas, percent of the uptake in normal tissues",[2]; 15 min p.i.,37%
same,"activity in occluded areas, percent of the uptake in normal tissues",[2]; 45 min p.i.,82%
same,redistribution kinetics,"[2]; compared with Tl-201, occluded heart areas after reperfusion",considerably faster
same,"biodistribution, Adrenals",[3]; [4],3.68 ± 0.89 % ID/g
same,"biodistribution, Blood",[3]; [4],0.25 ± 0.07 % ID/g
same,"biodistribution, Bone",[3]; [4],0.48 ± 0.10 % ID/g
same,"biodistribution, Brain",[3]; [4],0.10 ± 0.02 % ID/g
same,"biodistribution, Heart",[3]; [4],4.18 ± 0.18 % ID/g
same,"biodistribution, Kidney",[3]; [4],9.21 ± 0.98 % ID/g
same,"biodistribution, Large Intestine",[3]; [4],1.03 ± 0.82 % ID/g
same,"biodistribution, Liver",[3]; [4],1.25 ± 0.05 % ID/g
same,"biodistribution, Lung",[3]; [4],2.09 ± 0.43 % ID/g
same,"biodistribution, Muscle",[3]; [4],0.18 ± 0.02 % ID/g
same,"biodistribution, Pancreas",[3]; [4],1.81 ± 0.20 % ID/g
same,"biodistribution, Small Intestine",[3]; [4],4.06 ± 0.91 % ID/g
same,"biodistribution, Spleen",[3]; [4],1.45 ± 0.30 % ID/g
same,"biodistribution, Stomach",[3]; [4],0.80 ± 0.41 % ID/g
same,"biodistribution, Adrenals",[3]; [5],3.44 ± 1.07 % ID/g
same,"biodistribution, Blood",[3]; [5],0.22 ± 0.04 % ID/g
same,"biodistribution, Bone",[3]; [5],0.66 ± 0.09 % ID/g
same,"biodistribution, Brain",[3]; [5],0.09 ± 0.03 % ID/g
same,"biodistribution, Heart",[3]; [5],4.30 ± 0.68 % ID/g
same,"biodistribution, Kidney",[3]; [5],6.96 ± 1.39 % ID/g
same,"biodistribution, Large Intestine",[3]; [5],1.22 ± 0.05 % ID/g
same,"biodistribution, Liver",[3]; [5],2.37 ± 0.20 % ID/g
same,"biodistribution, Lung",[3]; [5],1.74 ± 0.18 % ID/g
same,"biodistribution, Muscle",[3]; [5],0.31 ± 0.12 % ID/g
same,"biodistribution, Pancreas",[3]; [5],2.70 ± 0.02 % ID/g
same,"biodistribution, Small Intestine",[3]; [5],3.47 ± 0.33 % ID/g
same,"biodistribution, Spleen",[3]; [5],1.88 ± 0.21 % ID/g
same,"biodistribution, Stomach",[3]; [5],0.63 ± 0.26 % ID/g
same,"biodistribution, Adrenals",[3]; [6],2.92 ± 0.45 % ID/g
same,"biodistribution, Blood",[3]; [6],0.21 ± 0.04 % ID/g
same,"biodistribution, Bone",[3]; [6],0.65 ± 0.15 % ID/g
same,"biodistribution, Brain",[3]; [6],0.11 ± 0.02 % ID/g
same,"biodistribution, Heart",[3]; [6],2.55 ± 0.47 % ID/g
same,"biodistribution, Kidney",[3]; [6],2.90 ± 0.51 % ID/g
same,"biodistribution, Large Intestine",[3]; [6],0.70 ± 0.07 % ID/g
same,"biodistribution, Liver",[3]; [6],2.47 ± 0.64 % ID/g
same,"biodistribution, Lung",[3]; [6],1.62 ± 0.46 % ID/g
same,"biodistribution, Muscle",[3]; [6],0.31 ± 0.02 % ID/g
same,"biodistribution, Pancreas",[3]; [6],2.29 ± 0.73 % ID/g
same,"biodistribution, Small Intestine",[3]; [6],2.73 ± 0.64 % ID/g
same,"biodistribution, Spleen",[3]; [6],1.97 ± 0.47 % ID/g
same,"biodistribution, Stomach",[3]; [6],1.20 ± 0.46 % ID/g
same,"biodistribution, Adrenals",[3]; [7],2.08 ± 0.60 % ID/g
same,"biodistribution, Blood",[3]; [7],0.19 ± 0.03 % ID/g
same,"biodistribution, Bone",[3]; [7],0.63 ± 0.03 % ID/g
same,"biodistribution, Brain",[3]; [7],0.09 ± 0.01 % ID/g
same,"biodistribution, Heart",[3]; [7],2.69 ± 0.32 % ID/g
same,"biodistribution, Kidney",[3]; [7],2.91 ± 0.37 % ID/g
same,"biodistribution, Large Intestine",[3]; [7],0.53 ± 0.14 % ID/g
same,"biodistribution, Liver",[3]; [7],2.60 ± 0.43 % ID/g
same,"biodistribution, Lung",[3]; [7],1.73 ± 0.31 % ID/g
same,"biodistribution, Muscle",[3]; [7],0.36 ± 002 % ID/g
same,"biodistribution, Pancreas",[3]; [7],2.12 ± 0.13 % ID/g
same,"biodistribution, Small Intestine",[3]; [7],2.33 ± 0.72 % ID/g
same,"biodistribution, Spleen",[3]; [7],1.26 ± 0.78 % ID/g
same,"biodistribution, Stomach",[3]; [7],0.88 ± 0.24 % ID/g
same,"biodistribution, Adrenals",[3]; [8],1.32 ± 0.88 % ID/g
same,"biodistribution, Blood",[3]; [8],0.15 ± 0.08 % ID/g
same,"biodistribution, Bone",[3]; [8],0.38 ± 0.18 % ID/g
same,"biodistribution, Brain",[3]; [8],0.07 ± 0.03 % ID/g
same,"biodistribution, Heart",[3]; [8],1.58 ± 0.79 % ID/g
same,"biodistribution, Kidney",[3]; [8],1.56 ± 0.77 % ID/g
same,"biodistribution, Large Intestine",[3]; [8],0.47 ± 0.22 % ID/g
same,"biodistribution, Liver",[3]; [8],1.79 ± 1.07 % ID/g
same,"biodistribution, Lung",[3]; [8],1.02 ± 0.45 % ID/g
same,"biodistribution, Muscle",[3]; [8],0.21 ± 0.06 % ID/g
same,"biodistribution, Pancreas",[3]; [8],1.76 ± 0.91 % ID/g
same,"biodistribution, Small Intestine",[3]; [8],1.45 ± 0.82 % ID/g
same,"biodistribution, Spleen",[3]; [8],1.27 ± 0.57 % ID/g
same,"biodistribution, Stomach",[3]; [8],0.57 ± 0.24 % ID/g
same,"biodistribution, Adrenals",[3]; [9],1.45 ± 0.43 % ID/g
same,"biodistribution, Blood",[3]; [9],0.17 ± 0.01 % ID/g
same,"biodistribution, Bone",[3]; [9],0.54 ± 0.16 % ID/g
same,"biodistribution, Brain",[3]; [9],0.08 ± 0.02 % ID/g
same,"biodistribution, Heart",[3]; [9],1.48 ± 0.41 % ID/g
same,"biodistribution, Kidney",[3]; [9],1.45 ± 0.14 % ID/g
same,"biodistribution, Large Intestine",[3]; [9],0.53 ± 0.20 % ID/g
same,"biodistribution, Liver",[3]; [9],2.25 ± 0.77 % ID/g
same,"biodistribution, Lung",[3]; [9],1.00 ± 0.44 % ID/g
same,"biodistribution, Muscle",[3]; [9],0.35 ± 0.14 % ID/g
same,"biodistribution, Pancreas",[3]; [9],1.99 ± 0.73 % ID/g
same,"biodistribution, Small Intestine",[3]; [9],1.25 ± 0.34 % ID/g
same,"biodistribution, Spleen",[3]; [9],1.43 ± 0.41 % ID/g
same,"biodistribution, Stomach",[3]; [9],0.64 ± 0.31 % ID/g
same,"biodistribution, Adrenals",[3]; [10],0.56 ± 0.22 % ID/g
same,"biodistribution, Blood",[3]; [10],0.10 ± 0.05 % ID/g
same,"biodistribution, Bone",[3]; [10],0.33 ± 0.12 % ID/g
same,"biodistribution, Brain",[3]; [10],0.06 ± 0.03 % ID/g
same,"biodistribution, Heart",[3]; [10],0.67 ± 0.21 % ID/g
same,"biodistribution, Kidney",[3]; [10],0.76 ± 0.27 % ID/g
same,"biodistribution, Large Intestine",[3]; [10],0.36 ± 0.24 % ID/g
same,"biodistribution, Liver",[3]; [10],1.32 ± 0.73 % ID/g
same,"biodistribution, Lung",[3]; [10],0.60 ± 0.23 % ID/g
same,"biodistribution, Muscle",[3]; [10],0.24 ± 0.13 % ID/g
same,"biodistribution, Pancreas",[3]; [10],1.31 ± 0.66 % ID/g
same,"biodistribution, Small Intestine",[3]; [10],0.83 ± 0.37 % ID/g
same,"biodistribution, Spleen",[3]; [10],0.88 ± 0.42 % ID/g
same,"biodistribution, Stomach",[3]; [10],0.34 ± 0.15 % ID/g
same,"biodistribution, Adrenals",[3]; [11],0.75 ± 0.07 % ID/g
same,"biodistribution, Blood",[3]; [11],0.20 ± 0.01 % ID/g
same,"biodistribution, Bone",[3]; [11],0.61 ± 0.04 % ID/g
same,"biodistribution, Brain",[3]; [11],0.13 ± 0.01 % ID/g
same,"biodistribution, Heart",[3]; [11],0.81 ± 0.02 % ID/g
same,"biodistribution, Kidney",[3]; [11],0.90 ± 0.04 % ID/g
same,"biodistribution, Large Intestine",[3]; [11],0.59 ± 0.05 % ID/g
same,"biodistribution, Liver",[3]; [11],1.90 ± 0.03 % ID/g
same,"biodistribution, Lung",[3]; [11],0.79 ± 0.05 % ID/g
same,"biodistribution, Muscle",[3]; [11],0.61 ± 0.11 % ID/g
same,"biodistribution, Pancreas",[3]; [11],1.65 ± 0.20 % ID/g
same,"biodistribution, Small Intestine",[3]; [11],0.89 ± 0.02 % ID/g
same,"biodistribution, Spleen",[3]; [11],1.34 ± 0.06 % ID/g
same,"biodistribution, Stomach",[3]; [11],0.44 ± 0.15 % ID/g
